From patent US20240299400A1, “Transcription Factor GLI1 Inhibitors and Uses Thereof” (University of Connecticut, priority 2023, published 2024)
Read-outs that look alike come from different tables or passages of the source.

What was measured:
AKT1 = target: T1, AKT1 (Homo sapiens, UniProt P31749); experiment: ZLyte kinase assay, AKT1; type: biochemical; conditions: average of three replicates
T1 construct: purchased ThermoFisher Scientific (Madison, WI, USA), contract service
Procedure: (§1) Kinase screening experiments. Kinase inhibition/binding experiments were performed by ThermoFisher Scientific (Madison, WI, USA) as a contract service, utilizing their default protocols [G. Yernale, A comprehensive review on the biological interest of quinoline and its derivatives. Bioorg. Med. Chem. 32 (2021) 115973]. Briefly, for ZLyte assay, compound in DMSO (100 nL), kinase buffer (2.4 μL), peptide/kinase mixture (5 μL), and ATP solution (2.5 μL) were mixed in a black 384-well plate. Following a 30 s plate shake to mix reagents, the kinase assay mixture was incubated at RT for 60 min. Following addition of the development reagent solution to each well, another 60 min incubation was performed at RT for reaction development. Fluorescent signal was recorded and subsequently analyzed.

MAPK1 = target: T2, MAPK1 (Homo sapiens, UniProt P28482); experiment: ZLyte kinase assay, MAPK1; type: biochemical; conditions: average of three replicates
T2 construct: purchased ThermoFisher Scientific (Madison, WI, USA), contract service
T2 sequence (P28482 whole entry): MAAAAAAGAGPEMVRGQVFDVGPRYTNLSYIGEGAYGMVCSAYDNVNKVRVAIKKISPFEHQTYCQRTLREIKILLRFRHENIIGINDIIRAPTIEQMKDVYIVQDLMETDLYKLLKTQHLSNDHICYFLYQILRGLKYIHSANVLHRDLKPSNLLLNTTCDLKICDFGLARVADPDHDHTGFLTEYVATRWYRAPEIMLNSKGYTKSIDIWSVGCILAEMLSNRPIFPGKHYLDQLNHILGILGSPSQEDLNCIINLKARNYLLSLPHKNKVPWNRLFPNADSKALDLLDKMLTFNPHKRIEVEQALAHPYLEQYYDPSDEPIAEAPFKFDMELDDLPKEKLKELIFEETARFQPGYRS
Procedure: as §1

MAP2K1 = target: T3, MAP2K1 (Homo sapiens, UniProt Q02750); experiment: ZLyte kinase assay, MAP2K1; type: biochemical; conditions: average of three replicates
T3 construct: purchased ThermoFisher Scientific (Madison, WI, USA), contract service
T3 sequence (Q02750 whole entry): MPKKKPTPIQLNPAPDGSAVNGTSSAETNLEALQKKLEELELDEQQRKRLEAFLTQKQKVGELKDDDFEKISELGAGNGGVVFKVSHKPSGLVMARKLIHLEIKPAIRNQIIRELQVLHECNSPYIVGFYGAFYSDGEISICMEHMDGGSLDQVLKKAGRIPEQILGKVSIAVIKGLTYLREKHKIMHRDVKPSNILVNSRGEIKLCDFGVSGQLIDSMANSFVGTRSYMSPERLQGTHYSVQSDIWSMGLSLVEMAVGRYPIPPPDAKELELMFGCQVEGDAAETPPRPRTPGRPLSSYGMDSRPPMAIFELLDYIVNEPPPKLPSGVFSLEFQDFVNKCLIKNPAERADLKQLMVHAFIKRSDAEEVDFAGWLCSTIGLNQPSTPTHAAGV
Procedure: as §1

DAOY (MB) = experiment: MTS anti-proliferative assay in DAOY cells; type: cell-based; conditions: Homo sapiens, Daoy; Table 8, 48 h, mean ± SEM
GLI1 mRNA expression = experiment: RT-qPCR GLI1 mRNA expression in ASZ001 BCC cells; type: cell-based, mouse; conditions: Mus musculus, Ave ± SEM, read-out: RT-qPCR, IC50 ASZ001
MET = target: T4, MET (Homo sapiens, UniProt P08581); experiment: ZLyte kinase assay, MET; type: biochemical; conditions: average of three replicates
T4 construct: purchased ThermoFisher Scientific (Madison, WI, USA), contract service
T4 sequence (P08581 25-1390): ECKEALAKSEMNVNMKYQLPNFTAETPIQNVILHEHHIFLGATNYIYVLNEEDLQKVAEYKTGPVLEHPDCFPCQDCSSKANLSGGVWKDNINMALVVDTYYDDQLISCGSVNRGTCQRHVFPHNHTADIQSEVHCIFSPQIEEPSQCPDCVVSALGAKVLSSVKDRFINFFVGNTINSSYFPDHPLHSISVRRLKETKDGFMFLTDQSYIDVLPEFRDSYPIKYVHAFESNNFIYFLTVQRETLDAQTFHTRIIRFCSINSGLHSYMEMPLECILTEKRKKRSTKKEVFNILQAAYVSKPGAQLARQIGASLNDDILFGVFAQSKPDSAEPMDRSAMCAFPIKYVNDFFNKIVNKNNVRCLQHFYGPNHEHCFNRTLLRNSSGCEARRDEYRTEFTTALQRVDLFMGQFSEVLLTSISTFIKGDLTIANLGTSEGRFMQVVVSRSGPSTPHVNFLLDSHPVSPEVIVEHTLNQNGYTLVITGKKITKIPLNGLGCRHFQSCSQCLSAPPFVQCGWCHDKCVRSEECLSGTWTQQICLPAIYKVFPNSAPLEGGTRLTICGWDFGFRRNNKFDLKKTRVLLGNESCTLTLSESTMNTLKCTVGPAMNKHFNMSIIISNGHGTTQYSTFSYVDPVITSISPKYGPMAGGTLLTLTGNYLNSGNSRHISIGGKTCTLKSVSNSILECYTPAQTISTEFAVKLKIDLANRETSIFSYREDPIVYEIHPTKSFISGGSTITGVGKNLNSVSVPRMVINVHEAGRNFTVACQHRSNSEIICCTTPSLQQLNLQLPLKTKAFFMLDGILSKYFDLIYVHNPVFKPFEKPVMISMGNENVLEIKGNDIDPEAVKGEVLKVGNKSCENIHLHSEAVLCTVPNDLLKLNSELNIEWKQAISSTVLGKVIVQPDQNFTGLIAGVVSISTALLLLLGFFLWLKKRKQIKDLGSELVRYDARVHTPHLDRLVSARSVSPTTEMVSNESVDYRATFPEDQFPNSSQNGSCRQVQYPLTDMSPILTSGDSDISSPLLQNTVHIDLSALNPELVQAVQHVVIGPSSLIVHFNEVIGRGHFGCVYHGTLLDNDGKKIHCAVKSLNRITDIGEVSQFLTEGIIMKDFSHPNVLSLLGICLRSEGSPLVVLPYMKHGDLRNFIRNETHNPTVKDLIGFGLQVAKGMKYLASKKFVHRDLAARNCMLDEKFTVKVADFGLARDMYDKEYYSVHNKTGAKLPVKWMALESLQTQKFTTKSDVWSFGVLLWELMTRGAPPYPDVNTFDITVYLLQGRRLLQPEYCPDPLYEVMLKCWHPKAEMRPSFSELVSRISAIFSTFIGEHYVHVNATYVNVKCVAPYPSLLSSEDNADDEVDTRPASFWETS
Procedure: as §1

TGFBR1 = target: T5, TGFBR1 (Homo sapiens, UniProt P36897); experiment: LanthaScreen binding assay, TGFBR1; conditions: average of three replicates, read-out: % inhibition of the kinase TGFBR1
T5 construct: purchased ThermoFisher Scientific (Madison, WI, USA), contract service
T5 sequence (P36897 34-503): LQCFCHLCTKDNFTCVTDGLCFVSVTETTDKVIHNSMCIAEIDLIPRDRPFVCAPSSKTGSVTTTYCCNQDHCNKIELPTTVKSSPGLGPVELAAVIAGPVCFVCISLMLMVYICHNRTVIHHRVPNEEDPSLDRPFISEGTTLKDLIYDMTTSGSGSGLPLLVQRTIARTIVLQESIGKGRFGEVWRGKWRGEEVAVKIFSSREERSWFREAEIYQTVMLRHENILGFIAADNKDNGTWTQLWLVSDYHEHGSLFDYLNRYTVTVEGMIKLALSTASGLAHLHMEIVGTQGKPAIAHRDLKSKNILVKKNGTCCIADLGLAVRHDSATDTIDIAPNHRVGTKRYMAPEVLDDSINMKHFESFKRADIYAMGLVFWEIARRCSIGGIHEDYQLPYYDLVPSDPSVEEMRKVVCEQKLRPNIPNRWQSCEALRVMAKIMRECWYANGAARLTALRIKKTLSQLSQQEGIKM
Procedure: as §1
(§2) For the LanthaScreen Binding assay, compounds in DMSO (160 nL), kinase buffer (3.84 μL), kinase/antibody mixture (8.0 μL), and tracer (4.0 μL) were mixed in a white 384-well plate. Following a 30 s plate shake to mix the reagents, the kinase assay mixture was incubated at RT for 60 min. Fluorescent signals were recorded and subsequently analyzed.

DYRK2 = target: T6, DYRK2 (Homo sapiens, UniProt Q92630); experiment: LanthaScreen binding assay, DYRK2; conditions: average of three replicates, read-out: % inhibition of the kinase DYRK2
T6 construct: purchased ThermoFisher Scientific (Madison, WI, USA), contract service
T6 sequence (Q92630 1-601): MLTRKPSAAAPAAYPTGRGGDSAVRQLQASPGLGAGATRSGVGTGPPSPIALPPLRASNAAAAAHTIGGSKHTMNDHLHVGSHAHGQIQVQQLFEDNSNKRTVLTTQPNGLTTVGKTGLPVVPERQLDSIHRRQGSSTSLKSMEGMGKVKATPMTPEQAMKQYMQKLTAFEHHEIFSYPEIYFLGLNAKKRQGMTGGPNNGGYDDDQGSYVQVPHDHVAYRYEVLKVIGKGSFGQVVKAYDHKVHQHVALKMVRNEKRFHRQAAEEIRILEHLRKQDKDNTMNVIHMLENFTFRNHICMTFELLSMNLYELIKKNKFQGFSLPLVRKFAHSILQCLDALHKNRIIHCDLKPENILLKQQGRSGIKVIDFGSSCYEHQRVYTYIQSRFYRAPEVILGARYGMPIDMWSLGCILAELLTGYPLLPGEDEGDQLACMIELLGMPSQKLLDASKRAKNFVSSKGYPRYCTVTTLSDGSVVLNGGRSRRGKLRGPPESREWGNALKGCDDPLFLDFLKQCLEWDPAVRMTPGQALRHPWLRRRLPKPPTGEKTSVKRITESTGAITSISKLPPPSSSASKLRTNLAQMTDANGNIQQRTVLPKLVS
Procedure: as §1, §2

T1 sequence (P31749 whole entry): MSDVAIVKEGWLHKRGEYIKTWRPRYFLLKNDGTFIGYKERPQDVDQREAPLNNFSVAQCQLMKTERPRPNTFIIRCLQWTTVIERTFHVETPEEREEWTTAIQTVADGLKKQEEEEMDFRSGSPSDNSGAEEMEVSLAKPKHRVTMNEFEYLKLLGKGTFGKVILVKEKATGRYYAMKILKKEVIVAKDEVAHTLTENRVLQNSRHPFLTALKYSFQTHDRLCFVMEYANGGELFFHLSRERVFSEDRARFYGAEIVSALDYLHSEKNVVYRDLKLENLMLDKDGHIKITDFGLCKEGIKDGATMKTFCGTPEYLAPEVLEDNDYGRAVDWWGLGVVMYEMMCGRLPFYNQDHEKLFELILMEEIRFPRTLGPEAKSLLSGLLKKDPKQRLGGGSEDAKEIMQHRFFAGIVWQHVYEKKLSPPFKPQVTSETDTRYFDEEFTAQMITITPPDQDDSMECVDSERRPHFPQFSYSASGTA

Row | Structure (SMILES) | inhibition at 1 µM (AKT1) [%] | inhibition at 1 µM (MAPK1) [%] | inhibition at 1 µM (MAP2K1) [%] | GI50 (DAOY (MB)) [µM] | IC50 (GLI1 mRNA expression; ASZ001, Table 7, GLI1 mRNA) [nM] | inhibition at 1 µM (MET) [%] | inhibition at 1 µM (TGFBR1) [%] | inhibition at 1 µM (DYRK2) [%] | IC50 (GLI1 mRNA expression; ASZ001, Table 5, GLI1 mRNA) [nM]
1 | Cc1ccc2ccc(C(Nc3ccccn3)c3ccncc3)c(O)c2n1 (stereo not drawn) [Compound 39, 7-((Pyridin-4-yl)(pyridin-2-ylamino)methyl)-2-methylquinolin-8-ol] | 7 | 7 | 14 | 1.2 ± 0.2 | 1900 ± 500 | 4 | 2 | -4 | –
2 | Cc1ccc2ccc(C(Nc3ccccn3)c3ccc(N4CCCC4=O)cc3)c(O)c2n1 (stereo not drawn) [Compound 48, 7-((4-(2-Oxopyrrolidin-1-yl)phenyl)(pyridin-2-ylamino)methyl)-2-methylquinolin-8-ol] | 10 | 12 | 14 | 25 ± 2.3 | 610 ± 340 | 4 | -2 | -1 | –
3 | CCN(CC)c1ccc(C(Nc2ccccn2)c2ccc3ccc(C)nc3c2OC)cc1 (stereo not drawn) [Compound 20, N-((4-Diethylaminophenyl)(8-methoxy-2-methylquinolin-7-yl)methyl)pyridin-2-amine] | 4 | 10 | 7 | > 100 | – | 5 | 6 | -2 | 1300 ± 300
